{"source": "patent US20250186423A1", "about": "“METHODS OF TREATING CANCER AND OTHER CONDITIONS WITH A MU OPIOID RECEPTOR ANTAGONIST” (priority 2022, published 2025)", "key": {"[1]": {"system": "Zebra fish larvae", "assay": "Zebra fish larvae toxicity screen", "assay_type": "in vivo, zebrafish", "settings": "doses up to 100 μM in incubation water", "experimental": "Transgenic Tg(fli1: EGFP)y1 zebrafish embryos were used for these studies. The results of this testing are shown in FIG. 4A and FIG. 4B, which show Zebra fish larvae survival up to 72 hours in the presence of increasing axelopran concentration in the incubation water.\nBased on the toxicity screening, for tumor progression analysis, doses up to 10 μM were utilized.\n(§1) The toxicity screening period covered the first 72 hours of development. The efficacy evaluation of Axelopran was made using M-001 melanoma cells and matching TILs. Two-day old zebrafish embryos were subcutaneously injected into the perivitelline space with approximately 700 M-001 cells labelled with Dil red fluorescent dye and intravenously injected with TILs with or without pembrolizumab antibody. At the same time, MOR-antagonist test doses were added to the water. Following an additional 72 hours of further development, the fish were assayed for tumor growth (size of original tumor implant) and metastasis disseminated to the distal caudal venous plexus (CVP) three days after implantation."}, "[2]": {"system": "M-001 melanoma cells", "assay": "Melanoma tumor progression in Zebra fish larvae", "assay_type": "in vivo, zebrafish", "settings": "for Melanoma tumor progression index (tumor size × metastasis), Mean: 72 hours of growth", "experimental": "Zebra fish larvae (FIG. 3A) allow direct visualization of injected tumor cell growth and metastasis (collectively tumor progression) using fluorescently label tumor cells. At this developmental stage both the zebra fish immune system and gut microbiome are immature or lacking. Co-injection of exogenous tumor infiltrating lymphocytes (ex-TILS) allows the separate study of immune surveillance in the absence of a microbiome.\nas §1\nThe testing described above was repeated studying the effects of various doses of axelopran (0, 50 nM, 100 nM, 500 nM, and 1000 nM) alone, pembrolizumab alone, or pembrolizumab in combination with axelopran. The results of this testing are shown in FIG. 7, which depicts a summary of melanoma tumor progression (tumor size×#metastasis) in the presence of increasing axelopran concentrations or the checkpoint inhibitor pembrolizumab. For experiments using pembrolizumab, exogenous tumor-infiltrating lymphocytes (TILs) were also injected. The additional controls included the effect of TILs alone and with axelopran (500 nM) and pembrolizumab and TILs alone and with axelopran (500 nM). *=<0.05, **=<0.005, ***=<0.0005."}, "[3]": {"system": "Zebra fish larvae", "assay": "Zebra fish larvae mortality in combination therapy study", "assay_type": "in vivo, zebrafish", "experimental": "as §1\nFor study investigating combination therapy, the Zebra fish larvae mortality was also investigated."}, "[4]": {"system": "MDA-MB-231 tumor cell line", "assay": "Breast cancer tumor progression in the CAM assay", "assay_type": "in vivo, chicken", "experimental": "The chicken egg chorioallantoic membrane assay (FIG. 3B) allows for the study of tumor progression of injected tumor cells in the presence of active endogenous immune surveillance, but again in the absence of an active gut microbiome.\nBreast cancer cell tumor progression was assessed in the chicken egg, chorioallantoic membrane assay. The experimental timing is shown below in FIG. 9. Fertilized chicken eggs were incubated for 9 days. The MDA-MB-231 tumor cell line was cultivated in D-MEM medium supplemented with 10% FBS and 1% penicillin/streptomycin. On day E9, cells were detached with trypsin, washed with complete medium and suspended in graft medium. An inoculum of 1×10^6 cells was added onto the CAM of each egg (E9) and then eggs were randomized into groups. Tumor cells (breast cancer MDA-MB231 cells (10^6)) were then seeded on the upper CAM and further incubated for 3 three days. Test agents were then added to the same site at selected concentrations. Following five days of further incubation the growing tumor was excised, freed of CAM tissue, and weighed.\nFor this testing, the chicken eggs were treated with: axelopran; pembrolizumab (Pembro); axelopran+pembrolizumab; bevacizumab (Beva); axelopran+bevacizumab; pembrolizumab+bevacizumab; and axelopran+pembrolizumab+bevacizumab. Axelopran was used at dose of 1.0 mg/kg; pembrolizumab was used at a dose of 2.5 mg/kg; and bevacizumab was used at a dose of 4 mg/kg. The results of this testing are shown in FIG. 10A, 10B, 11 and Table 2-2."}, "[5]": {"system": "chicken CD3, MMD and CD244", "assay": "Immune cell infiltration into CAM breast cancer tumors (RT-qPCR)", "assay_type": "in vivo", "settings": "axelopran used in the presence of bevacizumab and pembrolizumab", "experimental": "Infiltration of host immune cells into the tumor environment is required for host reduction of tumor progression. Among the tumors collected at E18, after tumor weighing, 10 tumors per group (n=10) were used for RNA extraction, in 6 groups (Gr. 1, 2, 3, 4, 7, and 8). After that, extracted RNA was analyzed by RT-qPCR with specific primers for chicken CD3, MMD and CD244 sequences. For all points done in qPCR, expression of human GAPDH was also analyzed, as reference gene expression, and used to normalize immune biomarker expression between samples. Calculation of Cq for each sample, mean Cq and relative amounts of immune cells for each group were directly managed by the Bio- Rad CFX Maestro software (see FIG. 11).\nThe infiltration of chicken CD3^+, CD244^+, and MMD^+ immune cells into breast cancer tumors grown on the upper CAM in the presence of axelopran, pembrolizumab, bevacizumab and combinations are shown in FIG. 11."}, "[6]": {"system": "M-001 melanoma cells", "assay": "Melanoma tumor progression in Zebra fish larvae", "assay_type": "in vivo, zebrafish", "settings": "Axelopran 10000 nM, 72 hours of growth"}, "[7]": {"settings": "absence of exogenous opioids, melanoma"}, "[8]": {"settings": "absence of exogenous opioids, breast cancer"}}, "data": [{"compound": "NC(=O)c1cccc(C2CC3CCC(C2)N3CCN(CC2CCCCC2)C(=O)[C@@H](O)CO)c1", "note": "(stereo partly drawn) [axelopran, 3-[(1R,3r,5S)-8-(2-{(cyclohexylmethyl)[(2S)-2,3-dihydroxypropanoyl]amino}ethyl)-8-azabicyclo[3.2.1]octan-3-yl]benzamide]", "values": [{"measurement": "abnormal pathology", "setting": "[1]", "value": "limited abnormal pathology"}, {"measurement": "larvae death", "setting": "[1]", "value": "did not result in larvae death"}, {"measurement": "survival and development of pathological lesions", "setting": "[1]; up to 72 hours", "value": "no different that the vehicle control"}, {"measurement": "metastasis", "setting": "[2]; 10 μM axelopran vs vehicle control", "value": "significantly reduced metastasis"}, {"measurement": "Melanoma tumor progression index (tumor size × metastasis), Mean", "setting": "[2]; Axelopran 100 nM", "value": 5.71}, {"measurement": "Melanoma tumor progression index (tumor size × metastasis), Mean", "setting": "[2]; Axelopran 500 nM +TILS", "value": 2.73}, {"measurement": "Melanoma tumor progression index (tumor size × metastasis), Mean", "setting": "[2]; Axelopran 500 nM", "value": 3.62}, {"measurement": "Melanoma tumor progression index (tumor size × metastasis), Mean", "setting": "[2]; Axelopran 1000 nM", "value": 1.85}, {"measurement": "interaction of axelopran activity with anti-PD-1 treatment", "setting": "[2]; absence of a microbiome, melanoma", "value": "additive"}, {"measurement": "metastasis", "setting": "[2]; [7]", "value": "inhibits metastasis"}, {"measurement": "tumor growth", "setting": "[2]; [7]", "value": "inhibits tumor growth"}, {"measurement": "Zebra fish larvae mortality", "setting": "[3]; axelopran added with TILS and TILS plus pembrolizumab", "value": "significantly reduced this mortality"}, {"measurement": "Zebra fish larvae mortality", "setting": "[3]; axelopran alone, 72-hour period after exposure at 48 hours post-fertilization", "value": "no significant mortality"}, {"measurement": "Breast cancer tumor progression index (tumor size × metastasis), Mean", "setting": "[4]; 5 days of growth in the upper CAM, axelopran 1.0 mg/kg, pembrolizumab 2.5 mg/kg, bevacizumab 4 mg/kg", "value": "0.63 fraction of negative control"}, {"measurement": "interaction of axelopran activity with anti-PD-1 treatment", "setting": "[4]; absence of a microbiome, breast cancer", "value": "additive"}, {"measurement": "metastasis", "setting": "[4]; [8]", "value": "inhibits metastasis"}, {"measurement": "tumor growth", "setting": "[4]; [8]", "value": "inhibits tumor growth"}, {"measurement": "infiltration of CD3+ lymphocytes, CD244+ natural killer cells and MMD+ macrophages into the tumor tissue", "setting": "[5]", "value": "synergistically enhanced the infiltration"}, {"measurement": "Melanoma tumor progression index (tumor size × metastasis), Mean", "setting": "[6]", "value": 2.41}]}]}
